Test results as given in article PMC11952493 (bioRxiv, 2025).
Where no end group is shown, it is not given here.

Target: T1, Recombinant Human FAPα (Homo sapiens, UniProt Q12884)
T1 sequence (Q12884 1-760): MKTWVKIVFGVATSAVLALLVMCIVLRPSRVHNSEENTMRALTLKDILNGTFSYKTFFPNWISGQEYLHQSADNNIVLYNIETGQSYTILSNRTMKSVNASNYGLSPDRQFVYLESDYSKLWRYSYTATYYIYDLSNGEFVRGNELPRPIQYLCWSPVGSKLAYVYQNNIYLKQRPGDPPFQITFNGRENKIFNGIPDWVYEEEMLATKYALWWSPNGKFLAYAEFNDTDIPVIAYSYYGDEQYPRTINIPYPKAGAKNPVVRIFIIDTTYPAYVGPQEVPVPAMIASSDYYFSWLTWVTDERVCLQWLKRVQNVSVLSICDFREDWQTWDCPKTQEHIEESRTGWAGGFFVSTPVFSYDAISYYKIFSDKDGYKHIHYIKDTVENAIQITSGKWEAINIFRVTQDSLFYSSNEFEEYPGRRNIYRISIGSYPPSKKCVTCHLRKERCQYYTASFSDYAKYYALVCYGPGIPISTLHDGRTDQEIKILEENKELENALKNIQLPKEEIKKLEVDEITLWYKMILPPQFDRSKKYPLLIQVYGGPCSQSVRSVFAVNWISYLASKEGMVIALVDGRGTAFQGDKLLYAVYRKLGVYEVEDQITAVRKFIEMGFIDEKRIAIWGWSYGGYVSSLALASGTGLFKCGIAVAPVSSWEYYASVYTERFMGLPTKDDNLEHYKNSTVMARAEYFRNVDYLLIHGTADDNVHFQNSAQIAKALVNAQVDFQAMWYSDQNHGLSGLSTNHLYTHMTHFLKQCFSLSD
Experiment: Fluorogenic substrate cleavage assay with FAPα
Type: biochemical
Conditions: 200 μM substrate, 37°C; 10 nM FAPα, 2 nM DPP4, 6 nM DPP9, 3-6 nM PREP

| selectivity for FAPα over DPP4, DPP9 and PREP (in words) | Sequence |
| --- | --- |
| highest specificity | AACVSFQNLDCG (also: sidechain bridge or staple (positions not given here)) [FAP-33] |
| highest specificity | AACSFRINSLCG (also: sidechain bridge or staple (positions not given here)) [FAP-24] |
